From patent publication US11540539B2, “Reduced sodium food products” (GENERAL MILLS, INC., priority 2013, dated 2023)

What was measured:
perception of saltiness [1] = experiment: Broth DAP test: trained panel rates saltiness of compounds in simple broth; type: in vivo; conditions: individual compounds in simple broth; DAP score greater than 7.6 indicates saltiness or salt enhancement
Procedure: (§1) Briefly, each individual tested compound was placed in water and in sodium solution to test saltiness and saltiness enhancement potential. Tests in water were executed in a compound concentration of 10 ppm. Tests in sodium solution were executed in compound concentrations of 0.1, 1 and 10 ppm. Two control sodium solutions with known organoleptic salt intensities were provided as references for each test. The test for individual compounds was also conducted using simple broth instead of sodium solution. A number of compound combinations identified from the Na-solution DAP test were used for the broth DAP test. Tests were executed with a trained panel of 9-12 assessors. For Na-solution DAP tests, a DAP score of greater than 3.1 indicates saltiness or salt enhancement. The DAP score can be correlated with a sodium reduction potential by subtracting 3.1 from the DAP score.

perception of saltiness [2] = experiment: Na-solution DAP test: trained panel rates saltiness of compounds in sodium solution; type: in vivo; conditions: individual compounds in sodium solution; compound concentrations of 0.1, 1 and 10 ppm; DAP score greater than 3.1 indicates saltiness or salt enhancement
Procedure: as §1

Row | Compound | DAP in Broth (perception of saltiness [1]) | DAP in Na-Sol. (perception of saltiness [2])
1 | CCCCCCCCCCC[C@@H](O)CC(=O)CCc1ccc(O)c(OC)c1 [Compound 1] | 7.8 | –
2 | CCCCCCCCC/C=C/C(=O)CCc1ccc(O)c(OC)c1 [Compound 2] | 7.8 | –
3 | CCCCCC(CC(CCc1ccc(O)c(OC)c1)OC(C)=O)OC(C)=O (stereo not drawn) [Compound 3] | 8.8 | –
4 | CCC/C=C\C/C=C\CCCC/C=C\Cc1cc(O)cc(O)c1 [Compound 10] | 7.9 | –
5 | COc1cc(CC/C=C/C(=O)CCc2ccccc2)ccc1O [Compound 11] | 8.1 | –
6 | COc1cc(CCC(O)CC(=O)CCc2ccccc2)ccc1O (stereo not drawn) [Compound 12] | 7.6 | –
7 | COc1cc(COC(=O)CCCC/C=C/C(C)C)ccc1O [Compound 13] | 7.9 | –
8 | CC(C)CNC(=O)/C=C/C=C/CCCCCC/C=C/c1ccc2c(c1)OCO2 [Compound 15] | 8.1 | 3.5
9 | CCCCC/C=C\CCCCCCc1cc(=O)c2ccccc2n1C [Compound 16] | 8.0 | –
10 | O=C(/C=C/C=C/c1ccc2c(c1)OCO2)N1CCCCC1 [Compound 18] | 8.1 | –
11 | COc1cc(CNC(=O)CCCCCCC(C)C)ccc1O [Compound 21] | – | 4
12 | COc1cc2oc(=O)ccc2c(OC)c1CC=C(C)C [Compound 28] | – | 3.6
13 | C=CC(C)(O)CCC1(C)C2=C(C(OC(C)=O)C(OC(C)=O)C1C)C(C)(C)CCC2 (stereo not drawn) [Compound 29] | 8.0 | –
14 | C=C[C@@]1(C)CC(=O)C2[C@]3(C)C(C[C@@H](O)[C@@]2(O)C1=O)C(C)(C)[C@H](OC(C)=O)[C@H](OC(C)=O)[C@@H]3OC(=O)c1ccccc1 (stereo partly drawn) [Compound 32] | 8.1 | –
15 | C/C=C(\C)C(=O)O[C@H]1[C@H](O)[C@]2(CO)[C@H](O)C[C@]3(C)C(=CCC4[C@@]5(C)CC[C@H](O[C@@H]6O[C@H](C(=O)O)[C@@H](O[C@@H]7O[C@H](CO)[C@@H](O)[C@H](O)[C@H]7O)[C@H](O)[C@H]6O[C@@H]6O[C@H](CO)[C@@H](O)[C@H](O)[C@H]6O)[C@](C)(CO)C5CC[C@]43C)[C@@H]2CC1(C)C (stereo partly drawn) [Compound 34] | 7.7 | –
16 | C=CC(C)(O)CC/C=C(\C)C(=O)OC1C(OCC2OC(OC(=O)C34CCC(C)(C)CC3C3=CCC5C6(C)CCC(OC7OC(COC8OCC(O)C(O)C8OC8OCC(O)C(O)C8O)C(O)C(O)C7O)C(C)(C)C6CCC5(C)C3(C)CC4O)C(OC3OC(C)C(OC4OCC(O)C(OC5OCC(O)C(O)C5O)C4O)C(O)C3O)C(OC(=O)/C(C)=C/CCC(C)(O)C=C)C2O)OC(C)C(O)C1O (stereo not drawn) [Compound 35] | 8.1 | 3.7
17 | CC1CCC2(OC1)OC1CC3C4CCC5CC(OC6OC(CO)C(OC7OC(CO)C(O)C(OC8OC(CO)C(O)C(OC9OCC(O)C(O)C9O)C8O)C7O)C(OC7OCC(O)C(O)C7O)C6O)CCC5(C)C4CC(=O)C3(C)C1C2C (stereo not drawn) [Compound 37] | 8.1 | 3.7
18 | CC(=O)OC1C(O)COC(OC2C(O)C(C)OC(OC(C)(CCC=C(C)C)C3C(O)CC4(C)C3CCC3C5(C)CCC(OC6OCC(O)C(O)C6O)C(C)(C)C5CCC34C)C2O)C1O (stereo not drawn) [Compound 38] | 8.1 | 3.9
19 | CC1(C)CC[C@]2(C(=O)O)CC[C@]3(C)C(=CCC4[C@@]5(C)C[C@@H](O)[C@H](O)C(C)(C)C5CC[C@]43C)C2C1 (stereo partly drawn) [Compound 42] | 8.1 | 3.1
20 | C[C@H]1[C@H](C)CC[C@]2(C(=O)O)CC[C@]3(C)C(=CC[C@@H]4[C@@]5(C)CC[C@H](O)C(C)(C)[C@@H]5CC[C@]43C)[C@H]12 [Compound 43] | 8.0 | –
21 | COc1cc2c(c(OC)c1OC)-c1c(cc3c(c1OC)OCO3)C[C@H](C)[C@@](C)(O)C2 [Compound 44] | 8.6 | 3.8
22 | COc1cc2c(c(OC)c1OC)-c1c(cc(OC)c(OC)c1OC)C[C@H](C)[C@H](C)C2 [Compound 45] | 8.2 | –
23 | COc1cc2c(c(OC)c1OC)-c1c(cc3c(c1OC)OCO3)CC(C)C(C)C2 (stereo not drawn) [Compound 46] | 7.8 | –

Row | Compound | DAP in Broth (perception of saltiness [1]) | DAP in Na-Sol. (perception of saltiness [2])
24 | COc1cc(CC(C)C(C)Cc2ccc(O)c(OC)c2)ccc1O (stereo not drawn) [Compound 49] | 8.2 | –
25 | COc1cc(O)c(C(C)=O)c(OC)c1 [Compound 53] | 8.5 | –
26 | COc1cc(C2c3cc4c(cc3CC3COC(=O)C32)OCO4)cc(OC)c1OC (stereo not drawn) [Compound 59] | 7.9 | 3.3
27 | CC(C)C(=O)c1c2c(c3oc(=O)cc(-c4ccccc4)c3c1O)CC(C(C)(C)O)O2 (stereo not drawn) [Compound 60] | 8.1 | 3.8
28 | COc1c2ccoc2cc2oc(=O)ccc12 [Compound 62] | 78.0 | 3.9
29 | CC(C)(O)C(O)COc1c2ccoc2cc2oc(=O)ccc12 (stereo not drawn) [Compound 63] | 8.0 | –
30 | CC(C)=CCOc1c2occc2cc2ccc(=O)oc12 [Compound 64] | 7.8 | 3.7
31 | COc1c2ccoc2c(OCC=C(C)C)c2oc(=O)ccc12 [Compound 65] | 7.9 | 3.3
32 | CC(=O)OC1CCC2(C)C(COc3ccc4ccc(=O)oc4c3)C(C)(O)CCC2C1(C)C (stereo not drawn) [Compound 66] | 7.8 | 3.2
33 | C[C@]12CC[C@H](O)C[C@H]1CC[C@@H]1[C@@H]2CC[C@]2(C)[C@@H](C3=CC(=O)OC3)CC[C@]12O [Compound 73] | 8.0 | 3.5
34 | CC(=O)O[C@@H]1CC2C(C)(C)C(=O)C=C[C@]2(C)C2CC[C@]3(C)C(=CC(=O)C3c3ccoc3)[C@@]21C (stereo partly drawn) [Compound 74] | 7.7 | 3.2
35 | C/C=C1\C(=O)CC2C3CCC4=CC(=O)CCC4(C)C3CCC12C (stereo not drawn) [Compound 75] | – | 3.6
36 | COC1CC(OC2CCC3(C=O)C(CCC4C3CCC3(C)C(C5=CC(=O)OC5)CCC43O)C2)OC(C)C1OC1OC(CO)C(O)C(O)C1O (stereo not drawn) [Compound 76] | 8.0 | 3.2
37 | COC1CC(OC2CCC3(C=O)C(CCC4C3CCC3(C)C(C5=CC(=O)OC5)CCC43O)C2)OC(C)C1O (stereo not drawn) [Compound 77] | 8.1 | 3.4
38 | C=CCCCCCCC(C(=O)O)C(O)CC(=O)O (stereo not drawn) [Compound 81] | 7.8 | 3.2
39 | C=CCCCCCCCCCCC[C@H](O)C[C@H](O)CO [Compound 82] | 8.3 | 3.8
40 | C=CCCCCCCCCCCCC(CC(O)COC(C)=O)OC(C)=O (stereo not drawn) [Compound 83] | 8.1 | 4.2
41 | CCCCCCCCCCNC(C)=O [Compound 84] | 8.1 | 3.8
42 | CC/C=C\C/C=C\C=C\[C@H](O)CCCCCCCC(=O)O [Compound 85] | – | 2.9
43 | CC/C=C\C=C\C(O)C/C=C\CCCCCCCC(=O)O (stereo not drawn) [Compound 86] | 8.0 | 3.9
44 | CCCCCCCC/C=C/C(O)CCCCCCC(=O)OCC(O)CO (stereo not drawn) [Compound 87] | 8.0 | –
45 | CCCCC/C=C/C=C/C(O)CCCCCCCC(=O)O (stereo not drawn) [Compound 88] | 8.0 | –
